The experiment deals with Sphingosine 1-phosphate receptor 3 (Homo sapiens) (UniProt Q99500). Briefly: activation of S1P3 receptor – cell-based, fluorescence, synthesized compounds, SAR follow-up (AID 540349). The following applies: S1P3-expressing cells, agonist fluorescence read-out.

Molecules are shown by their SMILES. The source made the active and inactive calls. How the calls were made is not given here. Bounds are passed on as bounds.

The EC50 is the concentration at which the effect is half-maximal.

Sequence of Sphingosine 1-phosphate receptor 3 (Homo sapiens) (Q99500 whole entry, looked up): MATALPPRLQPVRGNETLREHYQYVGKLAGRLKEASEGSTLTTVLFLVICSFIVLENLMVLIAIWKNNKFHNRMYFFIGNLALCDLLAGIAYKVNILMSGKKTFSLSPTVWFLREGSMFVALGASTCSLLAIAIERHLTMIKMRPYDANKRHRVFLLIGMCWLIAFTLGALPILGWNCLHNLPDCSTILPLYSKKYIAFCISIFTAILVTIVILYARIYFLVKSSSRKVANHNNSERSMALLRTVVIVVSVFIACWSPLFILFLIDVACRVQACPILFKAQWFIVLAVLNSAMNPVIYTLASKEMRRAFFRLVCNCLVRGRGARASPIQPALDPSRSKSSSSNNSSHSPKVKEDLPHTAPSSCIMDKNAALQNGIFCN

Regarding `O=C(c1cc(-c2ccccc2)on1)N(C1CCCCC1)C1CCCCC1`, the EC50 was 0.216 µM (run 1), 0.0352 µM (run 2) and 0.0589 µM (run 3).

In the case of `O=C(c1cc(C2CC2)on1)N(C1CCCCC1)C1CCCCC1`, the EC50 was 0.0723 µM (run 1), 0.132 µM (run 2) and 0.112 µM (run 3).

As for `CCCc1cc(C(=O)N(C2CCCCC2)C2CCCCC2)no1`, the EC50 (run 1) is 0.495 µM, the EC50 (run 2) is 0.335 µM and the EC50 (run 3) was 0.471 µM.

Consider `CC1CCCCC1N(C(=O)c1cc(C2CC2)on1)C1CCCCC1` (configuration not stated), for which the EC50 was 0.349 µM (run 1), 0.326 µM (run 2) and 0.337 µM (run 3).

Turning to `CC(C)Cc1cc(C(=O)N(C2CCCCC2)C2CCCCC2)no1`, the EC50 is 2.08 µM (run 1), 0.785 µM (run 2) and 1.26 µM (run 3).

In the case of `O=C(c1cc(C2CC2)on1)N(C1CCCCC1)C1CCOCC1`, the concentration giving a half-maximal response (EC50) is 3.83 µM (run 1), 3.73 µM (run 2) and 3.05 µM (run 3).

Consider `O=C(c1cc(C2CC2)on1)N(Cc1ccccc1)Cc1ccccc1`, for which the EC50 is > 10 µM (inactive) (run 1), > 50 µM (inactive) (run 2) and > 50 µM (inactive) (run 3).

As to `O=C(c1cc(C2CC2)on1)N(Cc1ccccc1)c1ccccn1`, the concentration giving a half-maximal response (EC50) (run 1) was 6.89 µM, the EC50 (run 2) was 7.54 µM and the EC50 (run 3) is 5.23 µM.

Turning to `O=C(c1cc(C2CC2)on1)N(C1CCCCCC1)C1CCCC1`, the EC50 was 3.91 µM (run 1), 2.39 µM (run 2) and 1.96 µM (run 3).

Regarding `O=C(c1cc(-c2ccccc2)on1)N(C1CCCCC1)C1CCCC1`, the EC50 is 1.55 µM (run 1), 0.519 µM (run 2) and 0.472 µM (run 3).

Consider `COc1ccc(N(Cc2ccccc2)C(=O)c2cc(C3CC3)on2)cc1`, for which, under “run 1”, the EC50 is > 10 µM (inactive). The EC50 entry (run 2) is “inactive” and the EC50 result (run 3) is “inactive”.

For `CC1CCCCC1N(C(=O)c1cc(C2CC2)on1)C1CCCC1` (configuration not stated), the 50% effective concentration (EC50) was 2.61 µM (run 1), 1.08 µM (run 2) and 1.53 µM (run 3).

With `O=C(c1cc(C2CC2)on1)N(C1CCCCC1)C1CCCC1`, the EC50 by setting is: (run 1) 2.77 µM; (run 2) 1.22 µM; (run 3) 1.06 µM.

Consider `CC1CCCCC1N(C(=O)c1cc(C2CC2)on1)C1CCCCCC1` (configuration not stated), for which the EC50 is 0.842 µM (run 1), 0.285 µM (run 2) and 0.478 µM (run 3).

On to `O=C(c1ccc(C2CC2)o1)N(C1CCCCC1)C1CCCCC1`, for which the EC50 (run 1) was > 10 µM (inactive), the EC50 (run 2) was > 50 µM (inactive) and the EC50 (run 3) was > 50 µM (inactive).

For `O=C(c1noc2ccccc12)N(C1CCCCC1)C1CCCCC1`, the EC50 is, setting by setting: (run 1) > 10 µM (inactive); (run 2) > 50 µM (inactive); (run 3) > 50 µM (inactive).

On to `CC(C)c1cc(C(=O)N(C2CCCCC2)C2CCCCC2)no1`, for which the EC50 is 1.41 µM (run 1), 0.799 µM (run 2) and 0.668 µM (run 3).

Consider `O=C(NC1CCCCC1)c1cc(C2CC2)on1`, for which the EC50 was > 10 µM (inactive) (run 1), > 50 µM (inactive) (run 2) and > 50 µM (inactive) (run 3).

In the case of `O=C(c1cc(C2CC2)on1)N(CC1CCCCC1)C1CCCCC1`, the EC50 is 6.4 µM (run 1), 2.16 µM (run 2) and 1.73 µM (run 3).

As to `CC1CCCCC1N(C(=O)c1cc(C2CC2)on1)C1CCCCC1C` (configuration not stated), the EC50 is 0.28 µM (run 1), 0.126 µM (run 2) and 0.2 µM (run 3).

For the molecule `O=C(c1coc(C2CC2)n1)N(C1CCCCC1)C1CCCCC1`, the EC50 (run 1) was > 10 µM (inactive), the EC50 (run 2) is > 50 µM (inactive) and the EC50 (run 3) was > 50 µM (inactive).

As for `COc1ccc(-c2cc(C(=O)N(C3CCCCC3)C3CCCCC3)no2)cc1`, the half-maximal effective concentration (EC50) by setting is: (run 1) 0.583 µM; (run 2) 0.173 µM; (run 3) 0.212 µM.

For the molecule `COc1ccc(-c2cc(C(=O)N(C3CCCCC3)C3CCCCC3)no2)cc1OC`, the EC50 runs as follows: (run 1) > 10 µM (inactive); (run 2) > 50 µM (inactive); (run 3) > 50 µM (inactive).

Consider `O=C(c1cc(C2CC2)on1)N(Cc1ccccc1)c1ccccc1`, for which the EC50 by setting is: (run 1) 7.62 µM; (run 2) 8.13 µM; (run 3) 5.25 µM.

With `CCN(CC)C(=O)c1cc(C2CC2)on1`, the EC50 was > 10 µM (inactive) (run 1), > 50 µM (inactive) (run 2) and > 50 µM (inactive) (run 3).

Consider `CCCc1cc(C(=O)N(C2CCCCC2)C2CCCC2)no1`, for which the EC50 runs as follows: (run 1) > 10 µM (inactive); (run 3) 5.67 µM. The EC50 result (run 2) was “inactive”.

Consider `CC1CCCCC1N(C(=O)c1cc(C2CC2)on1)C1CCOCC1` (configuration not stated), for which the EC50 (run 1) was > 10 µM (inactive), the EC50 (run 2) was 2.23 µM and the EC50 (run 3) is 3.41 µM.

Consider `CCOc1ccc(-c2nc(C(=O)N(C3CCCCC3)C3CCCCC3)co2)cc1OCC`, for which the EC50 runs as follows: (run 1) > 10 µM (inactive); (run 2) 8.01 µM; (run 3) 8.13 µM.

For `CCCc1cc(C(=O)NC2CCCCC2)no1`, the EC50 was > 10 µM (inactive) (run 1), > 50 µM (inactive) (run 2) and > 50 µM (inactive) (run 3).

These data come from PubChem BioAssay AID540349 (The Scripps Research Institute Molecular Screening Center, 2011).
